In patent EP0555116B1, “Compositions based on antiseptics and their applications” (HUTCHINSON, priority 1992, dated 1993):
“And” between values parts separate entries of the source, which are not always exact repeats. Identical values can stand only once.

Assays:
[1] = tested on: Candida albicans ATCC 1031; assay: Disinfection time test (Essai 2, Tables D-F), reaction at 22°, subcultures 72 h at 37°C; format: cell-based
Method: Un autre essai a été réalisé à partir des solutions suivantes : • 100 ml d'une solution à 0,1 % de digluconate de chlorhexidine (pH 6) et • 100 ml d'une solution à 0,1 % de Bardac 22®.
Les tests ont été réalisés conformément au protocole décrit dans le Chapitre I/2.1 et 2.2 de Richtlinien für die Prüfung und Bewertung chemischer Desinfektionsverfahren der DGHM, Stand 1.1., 1981).
Les tests dont les résultats sont illustrés aux Tableaux D, E et F ont été réalisés à une température de réaction de 22° avec une incubation des sous-cultures 72 heures à 37°C avec comme substances inactivantes : Tween® 80 3 % + saponine 3 % + cystéine 0,1 % + histidine 0,1 %; ces Tableaux illustrent respectivement l'activité bactéricide et fongicide d'une solution aqueuse à 0,1 % de digluconate de chlorhexidine, d'une solution aqueuse à 0,1 % de Bardac 22® et d'un mélange à part égale des deux composés et montrent l'action des antiseptiques précités, en fonction du temps de contact, et font apparaître la même synergie d'action de l'association que ci-dessus, dans la mesure où l'association des deux composés permet de diminuer significativement leur concentration, pour l'obtention d'un même effet. TABLEAU D

[2] = tested on: Herpès virus Hominis type 1, souche Bey (HSV1); assay: Immediate virucidal action on HSV1, plaque count on Vero cells; format: cell-based; settings: Bardac® 0,02 %; 3 boîtes de culture; J4
Method: Il s'agit d'une souche d'Herpès virus Hominis type 1, souche Bey (HSV1), elle est entretenue sur cellules fibroblastiques humaines ou sur cellules KB et a subi un nombre de passages importants, sur l'un ou l'autre type de cellules.
On utilise un lot viral congelé à -80°C après obtention d'un effet cytopathique ayant atteint au moins 80 % des cellules, sans une centrifugation préalable, qui aurait débarrassé l'inoculum de la majorité des débris cellulaires; en effet, il apparaît que l'infectivité du virus disparaît très rapidement lorsqu'il est extracellulaire, et, en conséquence, on est plus près de la réalité de l'infection in vivo lorsqu'on utilise un lot viral dans lequel des virions peuvent encore se trouver dans des débris cellulaires.
Ce lot a été titré, après répartition en aliquots de 0,5 ml, conservés à -80°C, sur cellules fibroblastiques humaines : • . par dilution de 10 en 10 et inoculations de 8 tubes de cultures par dilution : 10^6/ml; • . par inoculation de cultures en boîtes de Pétri (35 mm) et adjonction de sérum anti-HSV1 dans le surnageant pour neutraliser les virions qui pourraient être libérés dans le milieu liquide, permettant ainsi de compter des plages : 100 à 150 unités formant plages par boîte inoculée avec 0,5 ml d'une solution virale diluée à 10^-4. […]

virus HBV = assay: In vivo protection test in ducks (I.V.), inoculum 2.10^7 vge/canard; settings: Bardac® 0,1 %, voie I.V.
Source text: II - Essais in vivo chez le canard (voie I.V.).
• Bardac® 0,02 % (dose 100 fois inférieure à celle qui est efficace in vitro pour le Bardac® seul) - CHG 0,025 % contre un inoculum à 2.10^7 vge/canard protège 3/3 canards (figure 2). • Bardac® 0,1 % (dose 5 fois plus forte que dans une composition conforme à l'invention pour obtenir une protection équivalente) contre un inoculum à 2.10^7 vge/canard (vge = viral genoma equivalent) protège 4/4 canards (figure 3).
La figure 1 correspond à un témoin d'infection : 4/4 canards inoculés avec 2.10^7 vge développent une virémie dont le pic se situe entre 5 et 10 jours.

[3] = tested on: antigène du virus de l'hépatite B (AgHBs); assay: In vitro degradation of hepatitis B virus antigen (AgHBs): virucide + patient human serum (1/1000); format: biochemical; settings: Bardac® 0,2 %
Source text: I - Action sur la dégradation in vitro de l'antigène du virus de l'hépatite B (AgHBs) du virus de l'hépatite B : virucide + sérum humain de malade (1/1000ème).

Question: How did the croissance ([1]; Conc. 0,1 % (vol/vol), 1 min) turn out when `CCCCCCCCCC[N+](C)(C)CCCCCCCCCC` [Bardac®, chlorure de didécyldiméthylammonium] was run?
Answer: +

Question: And the croissance ([1]; Conc. 0,1 % (vol/vol), 3 min)?
Answer: +

Question: What about the croissance ([1]; Conc. 0,1 % (vol/vol), 5 min) of the same compound?
Answer: +

Question: What about the croissance ([1]; Conc. 0,1 % (vol/vol), 15 min) of the same compound?
Answer: +

Question: And the croissance ([1]; Conc. 0,1 % (vol/vol), 30 min)?
Answer: +

Question: What about the croissance ([1]; Conc. 0,1 % (vol/vol), 60 min) of the same compound?
Answer: +

Question: And the croissance ([1]; Conc. 0,05 % (vol/vol), 1 min)?
Answer: +

Question: And the croissance ([1]; Conc. 0,5 % (vol/vol), 1 min)?
Answer: +

Question: What about the croissance ([1]; Conc. 0,05 % (vol/vol), 3 min) of the same compound?
Answer: +

Question: And the croissance ([1]; Conc. 0,5 % (vol/vol), 3 min)?
Answer: +

Question: What about the croissance ([1]; Conc. 0,05 % (vol/vol), 5 min) of the same compound?
Answer: +

Question: What about the croissance ([1]; Conc. 0,5 % (vol/vol), 5 min) of the same compound?
Answer: +

Question: And the croissance ([1]; Conc. 0,05 % (vol/vol), 15 min)?
Answer: +

Question: What about the croissance ([1]; Conc. 0,5 % (vol/vol), 15 min) of the same compound?
Answer: +

Question: What about the croissance ([1]; Conc. 0,05 % (vol/vol), 30 min) of the same compound?
Answer: +

Question: What about the croissance ([1]; Conc. 0,5 % (vol/vol), 30 min) of the same compound?
Answer: +

Question: What about the croissance ([1]; Conc. 0,05 % (vol/vol), 60 min) of the same compound?
Answer: +

Question: What about the croissance ([1]; Conc. 0,5 % (vol/vol), 60 min) of the same compound?
Answer: +

Question: And the croissance ([1]; Conc. 1 % (vol/vol), 1 min)?
Answer: +

Question: What about the croissance ([1]; Conc. 1 % (vol/vol), 3 min) of the same compound?
Answer: +

Question: What about the croissance ([1]; Conc. 1 % (vol/vol), 5 min) of the same compound?
Answer: +

Question: And the croissance ([1]; Conc. 1 % (vol/vol), 15 min)?
Answer: +

Question: What about the croissance ([1]; Conc. 1 % (vol/vol), 30 min) of the same compound?
Answer: -

Question: What about the croissance ([1]; Conc. 1 % (vol/vol), 60 min) of the same compound?
Answer: -

Question: What about the croissance ([1]; Conc. 5 % (vol/vol), 1 min) of the same compound?
Answer: +

Question: And the croissance ([1]; Conc. 5 % (vol/vol), 3 min)?
Answer: +

Question: And the croissance ([1]; Conc. 5 % (vol/vol), 5 min)?
Answer: -

Question: What about the croissance ([1]; Conc. 5 % (vol/vol), 15 min) of the same compound?
Answer: -

Question: And the croissance ([1]; Conc. 5 % (vol/vol), 30 min)?
Answer: -

Question: And the croissance ([1]; Conc. 5 % (vol/vol), 60 min)?
Answer: -

Question: And the croissance ([1]; Conc. 10 % (vol/vol), 1 min)?
Answer: -

Question: What about the croissance ([1]; Conc. 10 % (vol/vol), 3 min) of the same compound?
Answer: -

Question: What about the croissance ([1]; Conc. 10 % (vol/vol), 5 min) of the same compound?
Answer: -

Question: And the croissance ([1]; Conc. 10 % (vol/vol), 15 min)?
Answer: -

Question: And the croissance ([1]; Conc. 10 % (vol/vol), 30 min)?
Answer: -

Question: And the croissance ([1]; Conc. 10 % (vol/vol), 60 min)?
Answer: -

Question: What about the croissance ([1]; Conc. 25 % (vol/vol), 1 min) of the same compound?
Answer: -

Question: What about the croissance ([1]; Conc. 25 % (vol/vol), 3 min) of the same compound?
Answer: -

Question: And the croissance ([1]; Conc. 25 % (vol/vol), 5 min)?
Answer: -

Question: And the croissance ([1]; Conc. 25 % (vol/vol), 15 min)?
Answer: -

Question: And the croissance ([1]; Conc. 25 % (vol/vol), 30 min)?
Answer: -

Question: What about the croissance ([1]; Conc. 25 % (vol/vol), 60 min) of the same compound?
Answer: -

Question: What about the “Nombre d'unités formant plage par millilitre de virus dilué à 10^-4” value [2] of the same compound?
Answer: 30/125/45 and 26/17/20

Question: What about the “canards protégés” value (virus HBV) of the same compound?
Answer: 4/4

Question: What about the “AgHBs résiduel (ratio)” value [3] of the same compound?
Answer: 1,35

Question: Which croissance ([1]; Conc. 0,1 % (vol/vol), 1 min) does the source give for `[H]/N=C(\N/C(=N/[H])NCCCCCCNC(=N)NC(=N)Nc1ccc(Cl)cc1)Nc1ccc(Cl)cc1` [Chlorhexidine, digluconate de chlorhexidine, reference compound] here?
Answer: +

Question: And the croissance ([1]; Conc. 0,1 % (vol/vol), 3 min)?
Answer: +

Question: What about the croissance ([1]; Conc. 0,1 % (vol/vol), 5 min) of the same compound?
Answer: +

Question: And the croissance ([1]; Conc. 0,1 % (vol/vol), 15 min)?
Answer: +

Question: What about the croissance ([1]; Conc. 0,1 % (vol/vol), 30 min) of the same compound?
Answer: +

Question: And the croissance ([1]; Conc. 0,1 % (vol/vol), 60 min)?
Answer: +

Question: What about the croissance ([1]; Conc. 0,05 % (vol/vol), 1 min) of the same compound?
Answer: +

Question: And the croissance ([1]; Conc. 0,5 % (vol/vol), 1 min)?
Answer: +

Question: What about the croissance ([1]; Conc. 0,05 % (vol/vol), 3 min) of the same compound?
Answer: +

Question: What about the croissance ([1]; Conc. 0,5 % (vol/vol), 3 min) of the same compound?
Answer: +

Question: What about the croissance ([1]; Conc. 0,05 % (vol/vol), 5 min) of the same compound?
Answer: +

Question: And the croissance ([1]; Conc. 0,5 % (vol/vol), 5 min)?
Answer: +

Question: What about the croissance ([1]; Conc. 0,05 % (vol/vol), 15 min) of the same compound?
Answer: +

Question: And the croissance ([1]; Conc. 0,5 % (vol/vol), 15 min)?
Answer: +

Question: What about the croissance ([1]; Conc. 0,05 % (vol/vol), 30 min) of the same compound?
Answer: +

Question: What about the croissance ([1]; Conc. 0,5 % (vol/vol), 30 min) of the same compound?
Answer: +

Question: And the croissance ([1]; Conc. 0,05 % (vol/vol), 60 min)?
Answer: +

Question: And the croissance ([1]; Conc. 0,5 % (vol/vol), 60 min)?
Answer: +

Question: And the croissance ([1]; Conc. 1 % (vol/vol), 1 min)?
Answer: +

Question: What about the croissance ([1]; Conc. 1 % (vol/vol), 3 min) of the same compound?
Answer: +

Question: What about the croissance ([1]; Conc. 1 % (vol/vol), 5 min) of the same compound?
Answer: +

Question: And the croissance ([1]; Conc. 1 % (vol/vol), 15 min)?
Answer: +

Question: What about the croissance ([1]; Conc. 1 % (vol/vol), 30 min) of the same compound?
Answer: +

Question: What about the croissance ([1]; Conc. 1 % (vol/vol), 60 min) of the same compound?
Answer: -

Question: And the croissance ([1]; Conc. 5 % (vol/vol), 1 min)?
Answer: +

Question: And the croissance ([1]; Conc. 5 % (vol/vol), 3 min)?
Answer: +

Question: And the croissance ([1]; Conc. 5 % (vol/vol), 5 min)?
Answer: +

Question: What about the croissance ([1]; Conc. 5 % (vol/vol), 15 min) of the same compound?
Answer: +

Question: What about the croissance ([1]; Conc. 5 % (vol/vol), 30 min) of the same compound?
Answer: -

Question: What about the croissance ([1]; Conc. 5 % (vol/vol), 60 min) of the same compound?
Answer: -

Question: What about the croissance ([1]; Conc. 10 % (vol/vol), 1 min) of the same compound?
Answer: +

Question: What about the croissance ([1]; Conc. 10 % (vol/vol), 3 min) of the same compound?
Answer: +

Question: What about the croissance ([1]; Conc. 10 % (vol/vol), 5 min) of the same compound?
Answer: +

Question: And the croissance ([1]; Conc. 10 % (vol/vol), 15 min)?
Answer: +

Question: And the croissance ([1]; Conc. 10 % (vol/vol), 30 min)?
Answer: -

Question: What about the croissance ([1]; Conc. 10 % (vol/vol), 60 min) of the same compound?
Answer: -

Question: What about the croissance ([1]; Conc. 25 % (vol/vol), 1 min) of the same compound?
Answer: +

Question: And the croissance ([1]; Conc. 25 % (vol/vol), 3 min)?
Answer: +

Question: And the croissance ([1]; Conc. 25 % (vol/vol), 5 min)?
Answer: +

Question: What about the croissance ([1]; Conc. 25 % (vol/vol), 15 min) of the same compound?
Answer: -

Question: What about the croissance ([1]; Conc. 25 % (vol/vol), 30 min) of the same compound?
Answer: -

Question: And the croissance ([1]; Conc. 25 % (vol/vol), 60 min)?
Answer: -
